Assay results reported in the NIST ThermoML archive (doi:10.1016/j.tca.2016.05.001).
Values joined by “and” are separate entries in the source; they are usually repeats but may differ in a detail not shown here. Identical values can stand only once.

Columns and labels:
[1] = for Triple point temperature: DSC
[2] = Molar enthalpy of transition or fusion; conditions: Crystal; DSC

c1cnc2c(c1)ccc1ncccc12 [1,5-diazaphenanthrene]
[1]
Conditions | vapor or sublimation pressure
315 K, Crystal, Torsion effusion method | 3.8e-05 kPa
315.1 K, Crystal, Torsion effusion method | 3.8e-05 kPa
317.3 K, Crystal, Torsion effusion method | 4.7e-05 kPa
317.9 K, Crystal, Torsion effusion method | 5.7e-05 kPa
318.6 K, Crystal, Torsion effusion method | 5.7e-05 kPa
319.5 K, Crystal, Torsion effusion method | 6.7e-05 kPa
320.5 K, Crystal, Torsion effusion method | 7.6e-05 kPa
320.8 K, Crystal, Torsion effusion method | 7.6e-05 kPa
322.6 K, Crystal, Torsion effusion method | 0.0001 kPa
322.9 K, Crystal, Torsion effusion method | 0.00011 kPa
323 K, Crystal, Torsion effusion method | 0.000114 kPa
323.8 K, Crystal, Torsion effusion method | 0.00011 kPa
325.3 K, Crystal, Torsion effusion method | 0.000142 kPa
325.6 K, Crystal, Torsion effusion method | 0.00014 kPa
326 K, Crystal, Torsion effusion method | 0.00015 kPa
326.2 K, Crystal, Torsion effusion method | 0.00017 kPa
327.5 K, Crystal, Torsion effusion method | 0.00021 kPa
328.2 K, Crystal, Torsion effusion method | 0.000208 kPa and 0.00021 kPa
328.7 K, Crystal, Torsion effusion method | 0.00023 kPa
329.1 K, Crystal, Torsion effusion method | 0.00025 kPa
329.6 K, Crystal, Torsion effusion method | 0.00026 kPa
330.5 K, Crystal, Torsion effusion method | 0.00028 kPa
331 K, Crystal, Torsion effusion method | 0.0003 kPa
331.5 K, Crystal, Torsion effusion method | 0.00033 kPa
332 K, Crystal, Torsion effusion method | 0.00032 kPa
333 K, Crystal, Torsion effusion method | 0.00041 kPa
334.5 K, Crystal, Torsion effusion method | 0.00044 kPa
334.9 K, Crystal, Torsion effusion method | 0.00051 kPa
335 K, Crystal, Torsion effusion method | 0.00047 kPa
336.2 K, Crystal, Torsion effusion method | 0.00061 kPa
336.5 K, Crystal, Torsion effusion method | 0.00055 kPa
337.7 K, Crystal, Torsion effusion method | 0.00072 kPa
338.3 K, Crystal, Torsion effusion method | 0.00072 kPa
339.3 K, Crystal, Torsion effusion method | 0.00072 kPa
340 K, Crystal, Torsion effusion method | 0.00095 kPa and 0.00091 kPa
340.4 K, Crystal, Torsion effusion method | 0.00087 kPa
341.5 K, Crystal, Torsion effusion method | 0.00112 kPa
342.6 K, Crystal, Torsion effusion method | 0.00108 kPa
343.5 K, Crystal, Torsion effusion method | 0.00127 kPa
380.1 K, Liquid, Rate of evaporation | 0.023 kPa
382.1 K, Liquid, Rate of evaporation | 0.028 kPa
385.6 K, Liquid, Rate of evaporation | 0.032 kPa
388.2 K, Liquid, Rate of evaporation | 0.037 kPa
390.3 K, Liquid, Rate of evaporation | 0.043 kPa
393.1 K, Liquid, Rate of evaporation | 0.05 kPa
395.6 K, Liquid, Rate of evaporation | 0.057 kPa
398.1 K, Liquid, Rate of evaporation | 0.065 kPa
403.1 K, Liquid, Rate of evaporation | 0.086 kPa
405.6 K, Liquid, Rate of evaporation | 0.097 kPa
408.1 K, Liquid, Rate of evaporation | 0.113 kPa
410.9 K, Liquid, Rate of evaporation | 0.132 kPa
413.1 K, Liquid, Rate of evaporation | 0.145 kPa
418.1 K, Liquid, Rate of evaporation | 0.187 kPa
423.1 K, Liquid, Rate of evaporation | 0.24 kPa
428.1 K, Liquid, Rate of evaporation | 0.302 kPa

Conditions | Triple point temperature [K]
[1], Crystal | 351.7

Conditions | Molar enthalpy of transition or fusion [kJ/mol]
[2] | 25.6

c1cnc2c(c1)ccc1cccnc12 [1,10-phenanthroline]
[1]
Conditions | vapor or sublimation pressure [kPa]
308.1 K, Crystal, Calculated from knudsen effusion weight loss | 8.3e-07
313.1 K, Crystal, Calculated from knudsen effusion weight loss | 1.76e-06
318.1 K, Crystal, Calculated from knudsen effusion weight loss | 3.3e-06
320.9 K, Crystal, Calculated from knudsen effusion weight loss | 4.6e-06
323.1 K, Crystal, Calculated from knudsen effusion weight loss | 5.5e-06
325.8 K, Crystal, Calculated from knudsen effusion weight loss | 8e-06
327.9 K, Crystal, Calculated from knudsen effusion weight loss | 9.9e-06
330.9 K, Crystal, Calculated from knudsen effusion weight loss | 1.53e-05
332.8 K, Crystal, Calculated from knudsen effusion weight loss | 1.71e-05
335.7 K, Crystal, Calculated from knudsen effusion weight loss | 2.6e-05
337.7 K, Crystal, Calculated from knudsen effusion weight loss | 3e-05
340.6 K, Crystal, Calculated from knudsen effusion weight loss | 4.2e-05
342.6 K, Crystal, Calculated from knudsen effusion weight loss | 5.1e-05
345.5 K, Crystal, Calculated from knudsen effusion weight loss | 7.7e-05
345.6 K, Crystal, Calculated from knudsen effusion weight loss | 7.5e-05
347.5 K, Crystal, Calculated from knudsen effusion weight loss | 9.2e-05
350.8 K, Crystal, Calculated from knudsen effusion weight loss | 0.000131
352.7 K, Crystal, Calculated from knudsen effusion weight loss | 0.000148
354.7 K, Crystal, Calculated from knudsen effusion weight loss | 0.000194
357.7 K, Crystal, Calculated from knudsen effusion weight loss | 0.00024
358.6 K, Crystal, Calculated from knudsen effusion weight loss | 0.00025
360.5 K, Crystal, Calculated from knudsen effusion weight loss | 0.0003
360.6 K, Crystal, Calculated from knudsen effusion weight loss | 0.00033
361.8 K, Crystal, Calculated from knudsen effusion weight loss | 0.00034
362.5 K, Crystal, Calculated from knudsen effusion weight loss | 0.00038
363.4 K, Crystal, Calculated from knudsen effusion weight loss | 0.0004
365 K, Crystal, Calculated from knudsen effusion weight loss | 0.00046
366.3 K, Crystal, Calculated from knudsen effusion weight loss | 0.00052
367.4 K, Crystal, Calculated from knudsen effusion weight loss | 0.0006
367.6 K, Crystal, Calculated from knudsen effusion weight loss | 0.00059
369.3 K, Crystal, Calculated from knudsen effusion weight loss | 0.00069
370.9 K, Crystal, Calculated from knudsen effusion weight loss | 0.0008
372.2 K, Crystal, Calculated from knudsen effusion weight loss | 0.0009
374 K, Crystal, Calculated from knudsen effusion weight loss | 0.00107
375.1 K, Crystal, Calculated from knudsen effusion weight loss | 0.00119
377.2 K, Crystal, Calculated from knudsen effusion weight loss | 0.0014
378.1 K, Crystal, Calculated from knudsen effusion weight loss | 0.00154
380.1 K, Crystal, Calculated from knudsen effusion weight loss | 0.00182
381 K, Crystal, Calculated from knudsen effusion weight loss | 0.00199
382.8 K, Crystal, Calculated from knudsen effusion weight loss | 0.00229
384.2 K, Crystal, Calculated from knudsen effusion weight loss | 0.00264
385.6 K, Crystal, Calculated from knudsen effusion weight loss | 0.00292
387.1 K, Crystal, Calculated from knudsen effusion weight loss | 0.00335
393.2 K, Liquid, Rate of evaporation | 0.0054
395.9 K, Liquid, Rate of evaporation | 0.0061
398.6 K, Liquid, Rate of evaporation | 0.0073
401.3 K, Liquid, Rate of evaporation | 0.0084
404.1 K, Liquid, Rate of evaporation | 0.0094
406.8 K, Liquid, Rate of evaporation | 0.0113
409.5 K, Liquid, Rate of evaporation | 0.0131
412.3 K, Liquid, Rate of evaporation | 0.0147
415 K, Liquid, Rate of evaporation | 0.0173
417.7 K, Liquid, Rate of evaporation | 0.0206
420.5 K, Liquid, Rate of evaporation | 0.024

Conditions | Triple point temperature [K]
[1], Crystal | 390.9

Conditions | Molar enthalpy of transition or fusion [kJ/mol]
[2] | 13.4

c1cnc2ccc3ncccc3c2c1 [4,7-phenanthroline]
[1]
Conditions | vapor or sublimation pressure
336.8 K, Crystal, Torsion effusion method | 2.8e-05 kPa
337.1 K, Crystal, Torsion effusion method | 2.8e-05 kPa
339.5 K, Crystal, Torsion effusion method | 3.8e-05 kPa
340 K, Crystal, Torsion effusion method | 3.8e-05 kPa
340.1 K, Crystal, Torsion effusion method | 3.8e-05 kPa
341 K, Crystal, Torsion effusion method | 4.7e-05 kPa
341.9 K, Crystal, Torsion effusion method | 4.7e-05 kPa
342.8 K, Crystal, Torsion effusion method | 5.7e-05 kPa
342.9 K, Crystal, Torsion effusion method | 5.7e-05 kPa
343.3 K, Crystal, Torsion effusion method | 5.7e-05 kPa
346 K, Crystal, Torsion effusion method | 8.5e-05 kPa
346.6 K, Crystal, Torsion effusion method | 9.4e-05 kPa
346.7 K, Crystal, Torsion effusion method | 9.4e-05 kPa
348.3 K, Crystal, Torsion effusion method | 0.000114 kPa
349 K, Crystal, Torsion effusion method | 0.000114 kPa
349.4 K, Crystal, Torsion effusion method | 0.000133 kPa
350.6 K, Crystal, Torsion effusion method | 0.000151 kPa
350.8 K, Crystal, Torsion effusion method | 0.000133 kPa
351.7 K, Crystal, Torsion effusion method | 0.00017 kPa
351.8 K, Crystal, Torsion effusion method | 0.00017 kPa
352.7 K, Crystal, Torsion effusion method | 0.00019 kPa
352.8 K, Crystal, Torsion effusion method | 0.00017 kPa
354.4 K, Crystal, Torsion effusion method | 0.000208 kPa
354.7 K, Crystal, Torsion effusion method | 0.000219 kPa
354.8 K, Crystal, Torsion effusion method | 0.000228 kPa
355.5 K, Crystal, Torsion effusion method | 0.000264 kPa
355.7 K, Crystal, Torsion effusion method | 0.000247 kPa
355.8 K, Crystal, Torsion effusion method | 0.000247 kPa
356.4 K, Crystal, Torsion effusion method | 0.000264 kPa
358.2 K, Crystal, Torsion effusion method | 0.00034 kPa and 0.000323 kPa
358.7 K, Crystal, Torsion effusion method | 0.000361 kPa
359.4 K, Crystal, Torsion effusion method | 0.000379 kPa
360.2 K, Crystal, Torsion effusion method | 0.000415 kPa
360.5 K, Crystal, Torsion effusion method | 0.000436 kPa and 0.000415 kPa
361.4 K, Crystal, Torsion effusion method | 0.000512 kPa
362.2 K, Crystal, Torsion effusion method | 0.000472 kPa
363.1 K, Crystal, Torsion effusion method | 0.000533 kPa
363.2 K, Crystal, Torsion effusion method | 0.000571 kPa
364.1 K, Crystal, Torsion effusion method | 0.000625 kPa
366.2 K, Crystal, Torsion effusion method | 0.000819 kPa and 0.000741 kPa
368.4 K, Crystal, Torsion effusion method | 0.000951 kPa
368.7 K, Crystal, Torsion effusion method | 0.00102 kPa
369.6 K, Crystal, Torsion effusion method | 0.001041 kPa
463.1 K, Liquid, Rate of evaporation | 1.495 kPa
468.1 K, Liquid, Rate of evaporation | 1.882 kPa
473.1 K, Liquid, Rate of evaporation | 2.253 kPa
477.9 K, Liquid, Rate of evaporation | 2.67 kPa
481.9 K, Liquid, Rate of evaporation | 3.103 kPa
486.5 K, Liquid, Rate of evaporation | 4.064 kPa
492.1 K, Liquid, Rate of evaporation | 5.014 kPa
496.2 K, Liquid, Rate of evaporation | 6.311 kPa

Conditions | Triple point temperature [K]
[1], Crystal | 444.1

Conditions | Molar enthalpy of transition or fusion [kJ/mol]
[2] | 22.4
